Results reported in patent US20220119354A1, “DIAMINO-SUBSTITUTED PYRIDINES AND PYRIMIDINES AS HERBICIDES” (FMC Corporation, priority 2019, published 2022).

What was measured:
Type in all cases: in vivo
kochia (Kochia scoparia) [1] = experiment: Test A preemergence, kochia; settings: 0 to 100 scale, 0 is no effect, 100 is complete control
How it was run: (§1)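 Pots of loam–sand mix; preemergence directed soil spray at sowing, postemergence spray at one- to two-leaf stage. Readout: visual injury vs untreated controls, ~10 d, 0–100 scale.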

[2] = tested on: barnyardgrass (Echinochloa crus-galli); experiment: Test A postemergence, barnyardgrass; settings: 0 to 100 scale; for Plant response rating, Barnyardgrass: 0 no effect, 100 complete control
How it was run: as §1

[3] = tested on: foxtail, giant (Setaria faberii); experiment: Test A preemergence, giant foxtail; settings: 0 to 100 scale, 0 is no effect, 100 is complete control
How it was run: as §1

[4] = tested on: ragweed (common ragweed, Ambrosia elatior); experiment: Test A preemergence, ragweed; settings: 0 to 100 scale, 0 is no effect, 100 is complete control
How it was run: as §1

[5] = tested on: barnyardgrass (Echinochloa crus-galli); experiment: Test B flooded paddy test, barnyardgrass; settings: Flood, 250 g ai/ha, applied to paddy water, 2-leaf stage, visual evaluation after 13 to 15 d
How it was run: (§2)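 Each response is a visual 0–100 rating made against untreated controls, where 0 is no effect and 100 is complete control; a dash marks no result. Compound was dosed into 3 cm paddy water over 2-leaf plants, assessed after 13 to 15 d.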

kochia (Kochia scoparia) [6] = experiment: Test A postemergence, kochia; settings: 0 to 100 scale; for Plant response rating, Kochia: 0 no effect, 100 complete control
How it was run: as §1

[7] = tested on: wheat (Triticum aestivum); experiment: Test A postemergence, wheat; settings: 0 to 100 scale; for Plant response rating, Wheat: 0 no effect, 100 complete control
How it was run: as §1

[8] = tested on: ryegrass, Italian (Lolium multiflorum); experiment: Test A postemergence, Italian ryegrass; settings: 0 to 100 scale; for Plant response rating, Ryegrass, Italian: 0 no effect, 100 complete control
How it was run: as §1

[9] = tested on: galium (catchweed bedstraw, Galium aparine); experiment: Test A postemergence, galium; settings: 0 to 100 scale; for Plant response rating, Galium: 0 no effect, 100 complete control
How it was run: as §1

corn (Zea mays) = experiment: Test A postemergence, corn; settings: 0 to 100 scale; for Plant response rating, Corn: 0 no effect, 100 complete control
How it was run: as §1

[10] = tested on: ragweed (common ragweed, Ambrosia elatior); experiment: Test A postemergence, ragweed; settings: 0 to 100 scale; for Plant response rating, Ragweed: 0 no effect, 100 complete control
How it was run: as §1

[11] = tested on: ducksalad (Heteranthera limosa); experiment: Test B flooded paddy test, ducksalad; settings: Flood, 250 g ai/ha, applied to paddy water, 2-leaf stage, visual evaluation after 13 to 15 d
How it was run: as §2

[12] = tested on: pigweed (Amaranthus retroflexus); experiment: Test A postemergence, pigweed; settings: 0 to 100 scale; for Plant response rating, Pigweed: 0 no effect, 100 complete control
How it was run: as §1

[13] = tested on: sedge, umbrella (small-flower umbrella sedge, Cyperus difformis); experiment: Test B flooded paddy test, umbrella sedge; settings: Flood, 250 g ai/ha, applied to paddy water, 2-leaf stage, visual evaluation after 13 to 15 d
How it was run: as §2

rice (Oryza sativa) = experiment: Test B flooded paddy test, rice; settings: Flood, 250 g ai/ha, applied to paddy water, 2-leaf stage, visual evaluation after 13 to 15 d
How it was run: as §2

[14] = tested on: ryegrass, Italian (Lolium multiflorum); experiment: Test A preemergence, Italian ryegrass; settings: 0 to 100 scale, 0 is no effect, 100 is complete control
How it was run: as §1

[15] = tested on: blackgrass (Alopecurus myosuroides); experiment: Test A postemergence, blackgrass; settings: 0 to 100 scale; for Plant response rating, Blackgrass: 0 no effect, 100 complete control
How it was run: as §1

[16] = tested on: foxtail, giant (Setaria faberii); experiment: Test A postemergence, giant foxtail; settings: 0 to 100 scale; for Plant response rating, Foxtail, Giant: 0 no effect, 100 complete control
How it was run: as §1

[17] = tested on: pigweed (Amaranthus retroflexus); experiment: Test A preemergence, pigweed; settings: 0 to 100 scale, 0 is no effect, 100 is complete control
How it was run: as §1

[18] = tested on: barnyardgrass (Echinochloa crus-galli); experiment: Test A preemergence, barnyardgrass; settings: 0 to 100 scale, 0 is no effect, 100 is complete control
How it was run: as §1

[19] = 500 g ai/ha, 0 is no effect, 100 is complete control

Row | SMILES | Kochia plant response rating (kochia (Kochia scoparia) [1]; 125 g ai/ha) | Kochia plant response rating (kochia (Kochia scoparia) [1]; 500 g ai/ha) | Plant response rating, Barnyardgrass ([2]; 125 g ai/ha) | Foxtail, Giant plant response rating ([3]; 125 g ai/ha) | Foxtail, Giant plant response rating ([3]; 500 g ai/ha) | Ragweed plant response rating ([4]; 125 g ai/ha) | Ragweed plant response rating ([4]; 500 g ai/ha) | Plant response rating, Barnyardgrass (0 to 100 scale, 0 is no effect, 100 is complete control) [5] | Plant response rating, Kochia (kochia (Kochia scoparia) [6]; 125 g ai/ha) | Plant response rating, Wheat ([7]; 125 g ai/ha) | Plant response rating, Ryegrass, Italian ([8]; 125 g ai/ha) | Plant response rating, Galium ([9]; 125 g ai/ha) | Plant response rating, Corn (corn (Zea mays); 125 g ai/ha) | Plant response rating, Ragweed ([10]; 125 g ai/ha) | Plant response rating, Ducksalad (0 to 100 scale, 0 is no effect, 100 is complete control) [11] | Plant response rating, Pigweed ([12]; 125 g ai/ha) | Plant response rating, Sedge, Umbrella (0 to 100 scale, 0 is no effect, 100 is complete control) [13] | Plant response rating, Rice (0 to 100 scale, 0 is no effect, 100 is complete control) (rice (Oryza sativa)) | Ryegrass, Italian plant response rating ([14]; 125 g ai/ha) | Ryegrass, Italian plant response rating ([14]; 500 g ai/ha) | also measured
1 | CC[C@H](Nc1ncc(C(F)(F)F)c(N)n1)c1cc2ccccc2s1 [Compound 44] | 0 | 0 | 0 | 0 | 20 | 20 | 50 | 0 | 0 | 0 | 0 | 0 | 0 | 0 | 0 | 0 | 0 | 0 | 0 | 0 | Barnyardgrass plant response rating [2, 19]: 0; Kochia plant response rating (kochia (Kochia scoparia) [6]; [19]): 50; Wheat plant response rating [7, 19]: 0; Ryegrass, Italian plant response rating [8, 19]: 0; Galium plant response rating [9, 19]: 0; Corn plant response rating (corn (Zea mays); [19]): 0; Ragweed plant response rating [10, 19]: 0; Pigweed plant response rating [12, 19]: 60; Plant response rating, Blackgrass ([15]; 125 g ai/ha): 0; Blackgrass plant response rating [15, 19]: 20; Plant response rating, Foxtail, Giant ([16]; 125 g ai/ha): 0; Foxtail, Giant plant response rating [16, 19]: 10; Pigweed plant response rating ([17]; 125 g ai/ha): 20; Pigweed plant response rating ([17]; 500 g ai/ha): 20; Barnyardgrass plant response rating ([18]; 125 g ai/ha): 0; Barnyardgrass plant response rating ([18]; 500 g ai/ha): 40
2 | C[C@@H](Nc1nc(N)c(C(F)(F)F)c(C(F)(F)F)n1)c1cc2ccccc2s1 [Compound 59] | 70 | 80 | 0 | 0 | 30 | 0 | 30 | 0 | 50 | 0 | 0 | 20 | 0 | 0 | 0 | 60 | 0 | 0 | 0 | 0 | Plant response rating, Barnyardgrass ([2]; 500 g ai/ha): 0; Plant response rating, Kochia (kochia (Kochia scoparia) [6]; 500 g ai/ha): 70; Plant response rating, Wheat ([7]; 500 g ai/ha): 0; Plant response rating, Ryegrass, Italian ([8]; 500 g ai/ha): 0; Plant response rating, Galium ([9]; 500 g ai/ha): 20; Plant response rating, Corn (corn (Zea mays); 500 g ai/ha): 0; Plant response rating, Ragweed ([10]; 500 g ai/ha): 0; Plant response rating, Pigweed ([12]; 500 g ai/ha): 80; Plant response rating, Blackgrass ([15]; 125 g ai/ha): 0; Plant response rating, Blackgrass ([15]; 500 g ai/ha): 0; Plant response rating, Foxtail, Giant ([16]; 125 g ai/ha): 0; Plant response rating, Foxtail, Giant ([16]; 500 g ai/ha): 0; Pigweed plant response rating ([17]; 125 g ai/ha): 30; Pigweed plant response rating ([17]; 500 g ai/ha): 80; Barnyardgrass plant response rating ([18]; 125 g ai/ha): 0; Barnyardgrass plant response rating ([18]; 500 g ai/ha): 0
